In this experiment the target is T1, BRM (Homo sapiens, UniProt P51531).
T1 construct: Western Blot Screen of BRM Degradation in SW1573 Cells; endogenous in cells; host or cells: SW1573 cells
Put plainly: BRM degradation (Dmax and DC50) in SW1573 cells, Western blot screen / In-Cell Western screen. The settings on record: overnight (18-20 hours) treatment; for Dmax: read-out: Dmax (%)** (% degraded). It is filed as cell-based. A digest of the protocol: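 Dmax and DC50 were derived from BRM levels normalised to an alpha-tubulin control, measured by chemiluminescent Western blotting of lysates or by PFA-fixed In-Cell Western on LI-COR Odyssey. SW1573 cells received compound overnight (18–20 h, 0.1% DMSO final).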
On the technique in general: In western blotting, separated proteins are transferred to a membrane and probed.

SMILES strings stand for the structures. Bounds are passed on as bounds.

T1 sequence (P51531 whole entry): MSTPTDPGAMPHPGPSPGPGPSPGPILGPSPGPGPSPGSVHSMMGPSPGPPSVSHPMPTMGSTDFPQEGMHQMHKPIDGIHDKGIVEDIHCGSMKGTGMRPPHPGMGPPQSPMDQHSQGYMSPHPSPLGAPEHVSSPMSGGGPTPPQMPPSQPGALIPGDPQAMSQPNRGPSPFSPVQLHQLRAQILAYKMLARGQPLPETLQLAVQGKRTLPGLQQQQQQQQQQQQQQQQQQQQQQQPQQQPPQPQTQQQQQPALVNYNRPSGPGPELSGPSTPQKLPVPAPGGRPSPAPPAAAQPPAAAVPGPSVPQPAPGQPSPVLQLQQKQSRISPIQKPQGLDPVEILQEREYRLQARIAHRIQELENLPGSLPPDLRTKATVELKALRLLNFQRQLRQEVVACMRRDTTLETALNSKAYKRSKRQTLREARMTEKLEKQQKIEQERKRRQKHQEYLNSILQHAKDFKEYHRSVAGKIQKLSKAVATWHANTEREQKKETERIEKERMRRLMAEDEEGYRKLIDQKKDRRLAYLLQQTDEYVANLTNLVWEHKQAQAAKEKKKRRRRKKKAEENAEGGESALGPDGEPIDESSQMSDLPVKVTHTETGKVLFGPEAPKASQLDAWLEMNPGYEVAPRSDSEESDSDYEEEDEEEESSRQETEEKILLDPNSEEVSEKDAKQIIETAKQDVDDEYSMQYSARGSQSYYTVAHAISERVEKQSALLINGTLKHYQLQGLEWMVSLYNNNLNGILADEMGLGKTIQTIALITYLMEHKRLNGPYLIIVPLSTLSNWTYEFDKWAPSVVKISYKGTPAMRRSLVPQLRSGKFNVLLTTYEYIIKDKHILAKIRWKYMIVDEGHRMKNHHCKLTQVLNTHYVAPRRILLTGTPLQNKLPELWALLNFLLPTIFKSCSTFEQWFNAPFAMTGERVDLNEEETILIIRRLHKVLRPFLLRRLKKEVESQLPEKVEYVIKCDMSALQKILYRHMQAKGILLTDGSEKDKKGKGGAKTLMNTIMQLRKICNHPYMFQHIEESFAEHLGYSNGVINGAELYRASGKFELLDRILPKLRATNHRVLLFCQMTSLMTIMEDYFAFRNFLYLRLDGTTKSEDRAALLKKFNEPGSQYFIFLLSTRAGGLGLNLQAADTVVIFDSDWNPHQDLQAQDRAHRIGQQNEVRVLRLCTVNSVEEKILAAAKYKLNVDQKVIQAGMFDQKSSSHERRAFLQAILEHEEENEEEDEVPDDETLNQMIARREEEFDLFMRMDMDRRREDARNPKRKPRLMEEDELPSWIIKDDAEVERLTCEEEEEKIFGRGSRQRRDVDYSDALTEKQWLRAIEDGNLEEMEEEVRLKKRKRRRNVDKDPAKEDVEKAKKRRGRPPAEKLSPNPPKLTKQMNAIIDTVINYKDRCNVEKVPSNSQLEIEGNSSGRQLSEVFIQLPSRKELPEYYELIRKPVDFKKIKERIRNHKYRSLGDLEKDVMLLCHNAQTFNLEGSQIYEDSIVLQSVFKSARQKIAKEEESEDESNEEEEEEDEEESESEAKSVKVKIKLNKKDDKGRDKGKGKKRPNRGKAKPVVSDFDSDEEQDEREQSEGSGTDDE

For `CC(C)[C@@H](C(=O)N1C[C@H](O)C[C@H]1C(=O)N[C@@H](C)c1ccc(-c2ccnn2C)cc1)c1cc(N2CCC(CN3CCC4(CC3)CC(N3CCO[C@@H](CN5C6CCC5CN(c5cc(-c7ccccc7O)nnc5N)C6)C3)C4)CC2)no1` [Compound 106, (2S,4R)-1-[(2R)-2-{3-[4-({2-[(2R)-2-({3-[3-amino-6-(2-hydroxyphenyl)pyridazin-4-yl]-3,8-diazabicyclo[3.2.1]octan-8-yl}methyl)morpholin-4-yl]-7-azaspiro[3.5]nonan-7-yl}methyl)piperidin-1-yl]-1,2-oxazol-5-yl}-3-methylbutanoyl]-4-hydroxy-N-[(1S)-1-[4-(1-methyl-1H-pyrazol-5-yl)phenyl]ethyl]pyrrolidine-2-carboxamide], the DC50 is less than 2.5 nM and the Dmax was more than 75%. The compound `Cc1ncsc1-c1ccc([C@H](C)NC(=O)[C@@H]2C[C@@H](O)CN2C(=O)[C@@H](c2cc(N3CCN(C(=O)[C@H]4C[C@H](Oc5cc(N6C7CCC6CN(c6cc(-c8ccccc8O)nnc6N)C7)ccn5)C4)CC3)no2)C(C)C)cc1` [Compound 107, (2S,4R)-4-hydroxy-N-[(1S)-1-[4-(4-methyl-1,3-thiazol-5-yl)phenyl]ethyl]-1-[(2R)-3-methyl-2-(3-{4-[(1r,3r)-3-[(4-{3-[3-amino-6-(2-hydroxyphenyl)pyridazin-4-yl]-3,8-diazabicyclo[3.2.1]octan-8-yl}pyridin-2-yl)oxy]cyclobutanecarbonyl]piperazin-1-yl}-1,2-oxazol-5-yl)butanoyl]pyrrolidine-2-carboxamide] registered a DC50 not below 30 nM. Turning to `Cc1ncsc1-c1ccc([C@H](C)NC(=O)[C@@H]2C[C@@H](O)CN2C(=O)[C@@H](c2cc(N3CCC(OC4CCN(C[C@H]5C[C@@H](N6CCO[C@@H](CN7C8CCC7CN(c7cc(-c9ccccc9O)nnc7N)C8)C6)C5)CC4)CC3)no2)C(C)C)cc1` [Compound 108, (2S,4R)-1-((2R)-2-(3-(4-((1-(((1S,3s)-3-((2R)-2-((3-(3-amino-6-(2-hydroxyphenyl)pyridazin-4-yl)-3,8-diazabicyclo[3.2.1]octan-8-yl)methyl)morpholino)cyclobutyl)methyl)piperidin-4-yl)oxy)piperidin-1-yl)isoxazol-5-yl)-3-methylbutanoyl)-4-hydroxy-N-((S)-1-(4-(4-methylthiazol-5-yl)phenyl)ethyl)pyrrolidine-2-carboxamide], the DC50 was less than 2.5 nM and the Dmax was more than 75%. For the compound `CC(C)[C@H](C(=O)N1C[C@H](O)C[C@H]1C(=O)N[C@@H](C)c1ccc(-c2ccnn2C)cc1)c1cc(N2CCC(OC3CCN(CC4CC(N5CCC([C@@H](C)n6cc(C#Cc7cc(-c8ccccc8O)nnc7N)cn6)CC5)C4)CC3)CC2)no1` (stereo partly drawn) [Compound 109, (2S,4R)-1-[(2S)-2-{3-[4-({1-[(3-{4-[(1R)-1-(4-{2-[3-amino-6-(2-hydroxyphenyl)pyridazin-4-yl]ethynyl}-1H-pyrazol-1-yl)ethyl]piperidin-1-yl}cyclobutyl)methyl]piperidin-4-yl}oxy)piperidin-1-yl]-1,2-oxazol-5-yl}-3-methylbutanoyl]-4-hydroxy-N-[(1S)-1-[4-(1-methyl-1H-pyrazol-5-yl)phenyl]ethyl]pyrrolidine-2-carboxamide], the 50% degradation concentration (DC50) was not below 30 nM. Turning to `CC(C)[C@@H](C(=O)N1C[C@H](O)C[C@H]1C(=O)N[C@@H](C)c1ccc(-c2ccnn2C)cc1)c1cc(N2CCC(OC3CCN(CC4CC(N5CCC([C@@H](C)n6cc(C#Cc7cc(-c8ccccc8O)nnc7N)cn6)CC5)C4)CC3)CC2)no1` (stereo partly drawn) [Compound 110, (2S,4R)-1-[(2R)-2-{3-[4-({1-[(3-{4-[(1R)-1-(4-{2-[3-amino-6-(2-hydroxyphenyl)pyridazin-4-yl]ethynyl}-1H-pyrazol-1-yl)ethyl]piperidin-1-yl}cyclobutyl)methyl]piperidin-4-yl}oxy)piperidin-1-yl]-1,2-oxazol-5-yl}-3-methylbutanoyl]-4-hydroxy-N-[(1S)-1-[4-(1-methyl-1H-pyrazol-5-yl)phenyl]ethyl]pyrrolidine-2-carboxamide], the DC50 was less than 2.5 nM and the Dmax was more than 75%.

`CC(C)[C@H](C(=O)N1C[C@H](O)C[C@H]1C(=O)N[C@@H](C)c1ccc(-c2ccnn2C)cc1)c1cc(N2CCC(OC3CCN(CC4CC(N5CCC([C@H](C)n6cc(C#Cc7cc(-c8ccccc8O)nnc7N)cn6)CC5)C4)CC3)CC2)no1` (stereo partly drawn) [Compound 111, (2S,4R)-1-[(2S)-2-{3-[4-({1-[(3-{4-[(1S)-1-(4-{2-[3-amino-6-(2-hydroxyphenyl)pyridazin-4-yl]ethynyl}-1H-pyrazol-1-yl)ethyl]piperidin-1-yl}cyclobutyl)methyl]piperidin-4-yl}oxy)piperidin-1-yl]-1,2-oxazol-5-yl}-3-methylbutanoyl]-4-hydroxy-N-[(1S)-1-[4-(1-methyl-1H-pyrazol-5-yl)phenyl]ethyl]pyrrolidine-2-carboxamide]: the DC50 is not below 30 nM. For `CC(C)[C@@H](C(=O)N1C[C@H](O)C[C@H]1C(=O)N[C@@H](C)c1ccc(-c2ccnn2C)cc1)c1cc(N2CCC(OC3CCN(CC4CC(N5CCC([C@H](C)n6cc(C#Cc7cc(-c8ccccc8O)nnc7N)cn6)CC5)C4)CC3)CC2)no1` (stereo partly drawn) [Compound 112, (2S,4R)-1-[(2R)-2-{3-[4-({1-[(3-{4-[(1S)-1-(4-{2-[3-amino-6-(2-hydroxyphenyl)pyridazin-4-yl]ethynyl}-1H-pyrazol-1-yl)ethyl]piperidin-1-yl}cyclobutyl)methyl]piperidin-4-yl}oxy)piperidin-1-yl]-1,2-oxazol-5-yl}-3-methylbutanoyl]-4-hydroxy-N-[(1S)-1-[4-(1-methyl-1H-pyrazol-5-yl)phenyl]ethyl]pyrrolidine-2-carboxamide], the DC50 was less than 2.5 nM and the Dmax was more than 75%. The corresponding values for `Cc1ncsc1-c1ccc([C@H](C)NC(=O)[C@@H]2C[C@@H](O)CN2C(=O)[C@@H](c2cc(N3CCC(CN4CCC5(CC4)CC(N4CCO[C@@H](CNC6CCN(c7cc(-c8ccccc8O)nnc7N)CC6)C4)C5)CC3)no2)C(C)C)cc1` [Compound 113, (2S,4R)-1-[(2R)-2-{3-[4-({2-[(2S)-2-[({1-[3-amino-6-(2-hydroxyphenyl)pyridazin-4-yl]piperidin-4-yl}amino)methyl]morpholin-4-yl]-7-azaspiro[3.5]nonan-7-yl}methyl)piperidin-1-yl]-1,2-oxazol-5-yl}-3-methylbutanoyl]-4-hydroxy-N-[(1S)-1-[4-(4-methyl-1,3-thiazol-5-yl)phenyl]ethyl]pyrrolidine-2-carboxamide] are less than 2.5 nM and more than 75%. Take `CC(C)[C@H](C(=O)N1C[C@H](O)C[C@H]1C(=O)N[C@@H](C)c1ccc(-c2ccnn2C)cc1)c1cc(N2CCC(CN3CCC(O[C@H]4C[C@H](OC(=O)N5CCN(c6cc(-c7ccccc7O)nnc6N)CC5)C4)CC3)CC2)no1` [Compound 114, (1r,3r)-3-({1-[(1-{5-[(2S)-1-[(2S,4R)-4-hydroxy-2-{[(1S)-1-[4-(1-methyl-1H-pyrazol-5-yl)phenyl]ethyl]carbamoyl}pyrrolidin-1-yl]-3-methyl-1-oxobutan-2-yl]-1,2-oxazol-3-yl}piperidin-4-yl)methyl]piperidin-4-yl}oxy)cyclobutyl 4-[3-amino-6-(2-hydroxyphenyl)pyridazin-4-yl]piperazine-1-carboxylate]: the DC50 was not below 30 nM. On to `CC(C)[C@@H](C(=O)N1C[C@H](O)C[C@H]1C(=O)N[C@@H](C)c1ccc(-c2ccnn2C)cc1)c1cc(N2CCC(CN3CCC(O[C@H]4C[C@H](OC(=O)N5CCN(c6cc(-c7ccccc7O)nnc6N)CC5)C4)CC3)CC2)no1` [Compound 115, (1r,3r)-3-({1-[(1-{5-[(2R)-1-[(2S,4R)-4-hydroxy-2-{[(1S)-1-[4-(1-methyl-1H-pyrazol-5-yl)phenyl]ethyl]carbamoyl}pyrrolidin-1-yl]-3-methyl-1-oxobutan-2-yl]-1,2-oxazol-3-yl}piperidin-4-yl)methyl]piperidin-4-yl}oxy)cyclobutyl 4-[3-amino-6-(2-hydroxyphenyl)pyridazin-4-yl]piperazine-1-carboxylate], for which the DC50 is not below 30 nM. `Cc1ncsc1-c1ccc([C@H](C)NC(=O)[C@@H]2C[C@@H](O)CN2C(=O)[C@H](c2cc(N3CCC(OC(=O)N4CCC(O[C@H]5C[C@H](Oc6cc(N7C8CCC7CN(c7cc(-c9ccccc9O)nnc7N)C8)ccn6)C5)CC4)CC3)no2)C(C)C)cc1` [Compound 116, 1-{5-[(2S)-1-[(2S,4R)-4-hydroxy-2-([(1S)-1-[4-(4-methyl-1,3-thiazol-5-yl)phenyl]ethyl]carbamoyl}pyrrolidin-1-yl]-3-methyl-1-oxobutan-2-yl]-1,2-oxazol-3-yl}piperidin-4-yl 4-[(1r,3r)-3-[(4-{3-[3-amino-6-(2-hydroxyphenyl)pyridazin-4-yl]-3,8-diazabicyclo[3.2.1]octan-8-yl}pyridin-2-yl)oxy]cyclobutoxy]piperidine-1-carboxylate]: the DC50 was less than 2.5 nM and the Dmax was more than 75%. For `Cc1ncsc1-c1ccc([C@H](C)NC(=O)[C@@H]2C[C@@H](O)CN2C(=O)[C@@H](c2cc(N3CCC(OC(=O)N4CCC(O[C@H]5C[C@H](Oc6cc(N7C8CCC7CN(c7cc(-c9ccccc9O)nnc7N)C8)ccn6)C5)CC4)CC3)no2)C(C)C)cc1` [Compound 117, 1-{5-[(2R)-1-[(2S,4R)-4-hydroxy-2-{[(1S)-1-[4-(4-methyl-1,3-thiazol-5-yl)phenyl]ethyl]carbamoyl}pyrrolidin-1-yl]-3-methyl-1-oxobutan-2-yl]-1,2-oxazol-3-yl}piperidin-4-yl 4-[(1r,3r)-3-[(4-{3-[3-amino-6-(2-hydroxyphenyl)pyridazin-4-yl]-3,8-diazabicyclo[3.2.1]octan-8-yl}pyridin-2-yl)oxy]cyclobutoxy]piperidine-1-carboxylate], the DC50 was less than 2.5 nM and the Dmax is more than 75%.

What is called DC50 is the concentration at which degradation of the target reaches its halfway point. Low readings indicate a more potent degrader, high ones a less potent degrader. A word on the Dmax: it is the greatest extent of degradation seen.
